Target: GST-tagged-Wee1 kinase (Homo sapiens, UniProt P30291)
Experiment: Wee1 time-resolved fluorescence equilibrium binding assay (displacement of Oregon Green-labeled ATP-competitive kinase probe)
Procedure: Wee1 kinase was assayed using a time-resolved fluorescence equilibrium binding assay monitoring displacement of a rapidly reversible Oregon Green-labeled ATP-competitive kinase probe (N-(2-(2-(2-(4-(4-(5-chloro-4-(2-(1-hydroxycyclobutyl)thiazol-5-yl)-1H-pyrrolo[2,3-b]pyridin-2-yl)phenyl)piperazin-1-yl)ethoxy)ethoxy)ethyl)-2′,7′-difluoro-3′,6′-dihydroxy-3-oxo-3H-spiro[isobenzofuran-1,9′-xanthene]-5-carboxamide) by competitive Wee1 inhibitors.

Sequence of GST-tagged-Wee1 kinase (P30291 whole entry): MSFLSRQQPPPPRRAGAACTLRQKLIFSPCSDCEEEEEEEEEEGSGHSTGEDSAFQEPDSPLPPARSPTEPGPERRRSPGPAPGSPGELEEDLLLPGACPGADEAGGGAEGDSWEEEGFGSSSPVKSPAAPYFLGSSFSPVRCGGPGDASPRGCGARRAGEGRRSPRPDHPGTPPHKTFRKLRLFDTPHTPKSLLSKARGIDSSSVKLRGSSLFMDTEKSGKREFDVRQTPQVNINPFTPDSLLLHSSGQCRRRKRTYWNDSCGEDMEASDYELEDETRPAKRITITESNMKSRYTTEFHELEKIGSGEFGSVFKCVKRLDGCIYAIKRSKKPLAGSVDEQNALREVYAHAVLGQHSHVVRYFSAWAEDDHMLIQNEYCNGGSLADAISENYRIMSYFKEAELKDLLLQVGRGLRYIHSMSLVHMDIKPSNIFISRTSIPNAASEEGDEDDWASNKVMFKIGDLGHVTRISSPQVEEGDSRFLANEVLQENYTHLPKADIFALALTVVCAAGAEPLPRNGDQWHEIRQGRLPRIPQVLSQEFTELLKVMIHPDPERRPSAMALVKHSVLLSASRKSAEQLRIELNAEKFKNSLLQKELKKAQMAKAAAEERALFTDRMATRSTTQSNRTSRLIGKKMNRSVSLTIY

SMILES | Ki [nM]
COc1ccccc1-n1nc(-c2ccccc2)c2nc(Nc3ccc(N4CCN(C)CC4)cc3)ncc2c1=O [Example 30, 6-(2-methoxyphenyl)-2-{[4-(4-methylpiperazin-1-yl)phenyl]amino}-8-phenylpyrimido[4,5-d]pyridazin-5(6H)-one] | 1
CN1CCN(c2ccc(Nc3ncc4c(=O)n(-c5ccccc5C(F)(F)F)nc(-c5ccccc5)c4n3)cc2)CC1 [Example 31, 2-{[4-(4-methylpiperazin-1-yl)phenyl]amino}-8-phenyl-6-[2-(trifluoromethyl)phenyl]pyrimido[4,5-d]pyridazin-5(6H)-one] | 0.8
CN1CCN(c2ccc(Nc3ncc4c(=O)n(-c5ccccc5)nc(-c5ccco5)c4n3)cc2)CC1 [Example 34, 8-(2-furyl)-2-{[4-(4-methylpiperazin-1-yl)phenyl]amino}-6-phenylpyrimido[4,5-d]pyridazin-5(6H)-one] | 4
C=CCn1nc(-c2ccccc2F)c2nc(Nc3ccc(N4CCN(C)CC4)cc3)ncc2c1=O [Example 35, 6-allyl-8-(2-fluorophenyl)-2-{[4-(4-methylpiperazin-1-yl)phenyl]amino}pyrimido[4,5-d]pyridazin-5(6H)-one] | 18
Cc1ccccc1-n1nc(-c2ccccc2F)c2nc(Nc3ccc(N4CCN(C)CC4)cc3)ncc2c1=O [Example 36, 8-(2-fluorophenyl)-6-(2-methylphenyl)-2-{[4-(4-methylpiperazin-1-yl)phenyl]amino}pyrimido[4,5-d]pyridazin-5(6H)-one] | 3
CN1CCN(c2ccc(Nc3ncc4c(=O)n(-c5ccccc5)nc(-c5ccccc5F)c4n3)cc2)CC1 [Example 37, 8-(2-fluorophenyl)-2-{[4-(4-methylpiperazin-1-yl)phenyl]amino}-6-phenylpyrimido[4,5-d]pyridazin-5(6H)-one] | 18
CN1CCN(c2ccc(Nc3ncc4c(=O)n(-c5ccccc5Cl)nc(-c5ccc(Cl)cc5Cl)c4n3)cc2)CC1 [Example 38, 6-(2-chlorophenyl)-8-(2,4-dichlorophenyl)-2-{[4-(4-methylpiperazin-1-yl)phenyl]amino}pyrimido[4,5-d]pyridazin-5(6H)-one] | 24
CN1CCN(c2ccc(Nc3ncc4c(=O)n(-c5ccccc5C(F)(F)F)nc(-c5ccc(Cl)cc5Cl)c4n3)cc2)CC1 [Example 39, 8-(2,4-dichlorophenyl)-2-{[4-(4-methylpiperazin-1-yl)phenyl]amino}-6-[2-(trifluoromethyl)phenyl]pyrimido[4,5-d]pyridazin-5(6H)-one] | 250
CN1CCN(c2ccc(Nc3ncc4c(=O)n(-c5ccccc5Cl)nc(-c5ccccc5F)c4n3)cc2)CC1 [Example 40, 6-(2-chlorophenyl)-8-(2-fluorophenyl)-2-{[4-(4-methylpiperazin-1-yl)phenyl]amino}pyrimido[4,5-d]pyridazin-5(6H)-one] | 1
Cc1ccccc1-n1nc(-c2ccc(Cl)cc2Cl)c2nc(Nc3ccc(N4CCN(C)CC4)cc3)ncc2c1=O [Example 41, 8-(2,4-dichlorophenyl)-6-(2-methylphenyl)-2-{[4-(4-methylpiperazin-1-yl)phenyl]amino}pyrimido[4,5-d]pyridazin-5(6H)-one] | 38
CN1CCN(c2ccc(Nc3ncc4c(=O)n(-c5ccccc5)nc(-c5ccc(Cl)cc5Cl)c4n3)cc2)CC1 [Example 42, 8-(2,4-dichlorophenyl)-2-{[4-(4-methylpiperazin-1-yl)phenyl]amino}-6-phenylpyrimido[4,5-d]pyridazin-5(6H)-one] | 400
COc1ccccc1-n1nc(-c2ccc(Cl)cc2Cl)c2nc(Nc3ccc(N4CCN(C)CC4)cc3)ncc2c1=O [Example 43, 8-(2,4-dichlorophenyl)-6-(2-methoxyphenyl)-2-{[4-(4-methylpiperazin-1-yl)phenyl]amino}pyrimido[4,5-d]pyridazin-5(6H)-one] | 260
CN1CCN(c2ccc(Nc3ncc4c(=O)n(-c5cccc(Cl)c5)nc(-c5ccc(Cl)cc5Cl)c4n3)cc2)CC1 [Example 44, 6-(3-chlorophenyl)-8-(2,4-dichlorophenyl)-2-{[4-(4-methylpiperazin-1-yl)phenyl]amino}pyrimido[4,5-d]pyridazin-5(6H)-one] | 520
CN1CCN(c2ccc(Nc3ncc4c(=O)n(-c5c(Cl)cccc5Cl)nc(-c5ccccc5F)c4n3)cc2)CC1 [Example 45, 6-(2,6-dichlorophenyl)-8-(2-fluorophenyl)-2-{[4-(4-methylpiperazin-1-yl)phenyl]amino}pyrimido[4,5-d]pyridazin-5(6H)-one] | 1
CN1CCN(c2ccc(Nc3ncc4c(=O)n(-c5c(Cl)cccc5Cl)nc(-c5ccccc5)c4n3)cc2)CC1 [Example 46, 6-(2,6-dichlorophenyl)-2-{[4-(4-methylpiperazin-1-yl)phenyl]amino}-8-phenylpyrimido[4,5-d]pyridazin-5(6H)-one] | 0.3
C=CCn1nc(-c2ccc(Cl)cc2Cl)c2nc(Nc3ccc(N4CCN(C)CC4)cc3)ncc2c1=O [Example 47, 6-allyl-8-(2,4-dichlorophenyl)-2-{[4-(4-methylpiperazin-1-yl)phenyl]amino}pyrimido[4,5-d]pyridazin-5(6H)-one] | 240
Cc1ccccc1-n1nc(C2CCCC2)c2nc(Nc3ccc(N4CCN(C)CC4)cc3)ncc2c1=O [Example 49, 8-cyclopentyl-6-(2-methylphenyl)-2-{[4-(4-methylpiperazin-1-yl)phenyl]amino}pyrimido[4,5-d]pyridazin-5(6H)-one] | 9
Cc1cccc(-c2nn(-c3ccccc3)c(=O)c3cnc(Nc4ccc(N5CCN(C)CC5)cc4)nc23)c1 [Example 50, 8-(3-methylphenyl)-2-{[4-(4-methylpiperazin-1-yl)phenyl]amino}-6-phenylpyrimido[4,5-d]pyridazin-5(6H)-one] | 5
Cc1cccc(-c2nn(-c3ccccc3Cl)c(=O)c3cnc(Nc4ccc(N5CCN(C)CC5)cc4)nc23)c1 [Example 51, 6-(2-chlorophenyl)-8-(3-methylphenyl)-2-{[4-(4-methylpiperazin-1-yl)phenyl]amino}pyrimido[4,5-d]pyridazin-5(6H)-one] | 0.4
Cc1cccc(-c2nn(-c3ccccc3C)c(=O)c3cnc(Nc4ccc(N5CCN(C)CC5)cc4)nc23)c1 [Example 52, 6-(2-methylphenyl)-8-(3-methylphenyl)-2-{[4-(4-methylpiperazin-1-yl)phenyl]amino}pyrimido[4,5-d]pyridazin-5(6H)-one] | 1
CN1Cc2cc(Nc3ncc4c(=O)n(-c5ccccc5Cl)nc(-c5ccccc5)c4n3)ccc2C2(CC2)C1 [Example 53, 6-(2-chlorophenyl)-2-[(2′-methyl-2′,3′-dihydro-1′H-spiro[cyclopropane-1,4′-isoquinolin]-7′-yl)amino]-8-phenylpyrimido[4,5-d]pyridazin-5(6H)-one] | 0.1
CN1CCN(c2ccc(Nc3ncc4c(=O)n(-c5ccccc5Cl)nc(C5CCCC5)c4n3)cc2)CC1 [Example 55, 6-(2-chlorophenyl)-8-cyclopentyl-2-{[4-(4-methylpiperazin-1-yl)phenyl]amino}pyrimido[4,5-d]pyridazin-5(6H)-one] | 2
CN1CCN(c2ccc(Nc3ncc4c(=O)n(-c5cccc(Cl)c5)nc(C5CCCC5)c4n3)cc2)CC1 [Example 56, 6-(3-chlorophenyl)-8-cyclopentyl-2-{[4-(4-methylpiperazin-1-yl)phenyl]amino}pyrimido[4,5-d]pyridazin-5(6H)-one] | 63

— patent publication US8796289B2 (AbbVie Inc., priority 2011, dated 2014)
